Results taken from the NIST ThermoML archive (doi:10.1021/je101361u).
Numbers after ± are expanded uncertainties.

Experiment: xn = mol fraction of the nth substance listed
Settings: 101.3 kPa, Liquid, Vibrating tube method

SMILES: CCOCCOCCOCC [diethylene glycol diethyl ether] + ClCCCl
- mass density (283.15 K, x2 = 0.0234): 920.54 ± 0.72 kg/m3
- mass density (283.15 K, x2 = 0.0504): 925.19 ± 0.7 kg/m3
- mass density (283.15 K, x2 = 0.0751): 929.56 ± 0.67 kg/m3
- mass density (283.15 K, x2 = 0.1009): 934.31 ± 0.65 kg/m3
- mass density (283.15 K, x2 = 0.1504): 943.66 ± 0.6 kg/m3
- mass density (283.15 K, x2 = 0.2): 953.71 ± 0.55 kg/m3
- mass density (283.15 K, x2 = 0.2546): 965.43 ± 0.51 kg/m3
- mass density (283.15 K, x2 = 0.2999): 975.65 ± 0.47 kg/m3
- mass density (283.15 K, x2 = 0.35): 987.75 ± 0.43 kg/m3
- mass density (283.15 K, x2 = 0.4006): 1000.78 ± 0.39 kg/m3
- mass density (283.15 K, x2 = 0.4502): 1014.42 ± 0.37 kg/m3
- mass density (283.15 K, x2 = 0.5002): 1029.16 ± 0.35 kg/m3
- mass density (283.15 K, x2 = 0.5499): 1044.87 ± 0.33 kg/m3
- mass density (283.15 K, x2 = 0.6): 1061.87 ± 0.32 kg/m3
- mass density (283.15 K, x2 = 0.65): 1080.19 ± 0.32 kg/m3
- mass density (283.15 K, x2 = 0.6999): 1100.05 ± 0.32 kg/m3
- mass density (283.15 K, x2 = 0.7492): 1121.14 ± 0.33 kg/m3
- mass density (283.15 K, x2 = 0.8): 1145.22 ± 0.34 kg/m3
- mass density (283.15 K, x2 = 0.85): 1171.12 ± 0.36 kg/m3
- mass density (283.15 K, x2 = 0.9): 1199.76 ± 0.39 kg/m3
- mass density (283.15 K, x2 = 0.95): 1231.56 ± 0.42 kg/m3
- mass density (283.15 K, x2 = 0.975): 1248.9 ± 0.44 kg/m3
- mass density (288.15 K, x2 = 0.0234): 915.7 ± 0.72 kg/m3
- mass density (288.15 K, x2 = 0.0504): 920.3 ± 0.69 kg/m3
- mass density (288.15 K, x2 = 0.0751): 924.64 ± 0.67 kg/m3
- mass density (288.15 K, x2 = 0.1009): 929.36 ± 0.64 kg/m3
- mass density (288.15 K, x2 = 0.1504): 938.64 ± 0.6 kg/m3
- mass density (288.15 K, x2 = 0.2): 948.62 ± 0.55 kg/m3
- mass density (288.15 K, x2 = 0.2546): 960.24 ± 0.5 kg/m3
- mass density (288.15 K, x2 = 0.2999): 970.39 ± 0.46 kg/m3
- mass density (288.15 K, x2 = 0.35): 982.41 ± 0.43 kg/m3
- mass density (288.15 K, x2 = 0.4006): 995.34 ± 0.39 kg/m3
- mass density (288.15 K, x2 = 0.4502): 1008.87 ± 0.36 kg/m3
- mass density (288.15 K, x2 = 0.5002): 1023.52 ± 0.34 kg/m3
- mass density (288.15 K, x2 = 0.5499): 1039.11 ± 0.33 kg/m3
- mass density (288.15 K, x2 = 0.6): 1056 ± 0.32 kg/m3
- mass density (288.15 K, x2 = 0.65): 1074.19 ± 0.32 kg/m3
- mass density (288.15 K, x2 = 0.6999): 1093.92 ± 0.32 kg/m3
- mass density (288.15 K, x2 = 0.7492): 1114.87 ± 0.32 kg/m3
- mass density (288.15 K, x2 = 0.8): 1138.79 ± 0.34 kg/m3
- mass density (288.15 K, x2 = 0.85): 1164.52 ± 0.36 kg/m3
- mass density (288.15 K, x2 = 0.9): 1192.98 ± 0.39 kg/m3
- mass density (288.15 K, x2 = 0.95): 1224.58 ± 0.41 kg/m3
- mass density (288.15 K, x2 = 0.975): 1241.8 ± 0.44 kg/m3
- mass density (293.15 K, x2 = 0.0234): 910.83 ± 0.71 kg/m3
- mass density (293.15 K, x2 = 0.0504): 915.41 ± 0.69 kg/m3
- mass density (293.15 K, x2 = 0.0751): 919.72 ± 0.66 kg/m3
- mass density (293.15 K, x2 = 0.1009): 924.39 ± 0.64 kg/m3
- mass density (293.15 K, x2 = 0.1504): 933.61 ± 0.59 kg/m3
- mass density (293.15 K, x2 = 0.2): 943.52 ± 0.55 kg/m3
- mass density (293.15 K, x2 = 0.2546): 955.05 ± 0.5 kg/m3
- mass density (293.15 K, x2 = 0.2999): 965.13 ± 0.46 kg/m3
- mass density (293.15 K, x2 = 0.35): 977.05 ± 0.42 kg/m3
- mass density (293.15 K, x2 = 0.4006): 989.89 ± 0.39 kg/m3
- mass density (293.15 K, x2 = 0.4502): 1003.32 ± 0.36 kg/m3
- mass density (293.15 K, x2 = 0.5002): 1017.86 ± 0.34 kg/m3
- mass density (293.15 K, x2 = 0.5499): 1033.35 ± 0.32 kg/m3
- mass density (293.15 K, x2 = 0.6): 1050.12 ± 0.32 kg/m3
- mass density (293.15 K, x2 = 0.65): 1068.18 ± 0.31 kg/m3
- mass density (293.15 K, x2 = 0.6999): 1087.77 ± 0.31 kg/m3
- mass density (293.15 K, x2 = 0.7492): 1108.58 ± 0.32 kg/m3
- mass density (293.15 K, x2 = 0.8): 1132.34 ± 0.34 kg/m3
- mass density (293.15 K, x2 = 0.85): 1157.9 ± 0.36 kg/m3
- mass density (293.15 K, x2 = 0.9): 1186.17 ± 0.39 kg/m3
- mass density (293.15 K, x2 = 0.95): 1217.56 ± 0.41 kg/m3
- mass density (293.15 K, x2 = 0.975): 1234.66 ± 0.43 kg/m3
- mass density (298.15 K, x2 = 0.0234): 905.98 ± 0.71 kg/m3
- mass density (298.15 K, x2 = 0.0504): 910.52 ± 0.68 kg/m3
- mass density (298.15 K, x2 = 0.0751): 914.8 ± 0.66 kg/m3
- mass density (298.15 K, x2 = 0.1009): 919.44 ± 0.63 kg/m3
- mass density (298.15 K, x2 = 0.1504): 928.58 ± 0.59 kg/m3
- mass density (298.15 K, x2 = 0.2): 938.42 ± 0.54 kg/m3
- mass density (298.15 K, x2 = 0.2546): 949.86 ± 0.5 kg/m3
- mass density (298.15 K, x2 = 0.2999): 959.86 ± 0.46 kg/m3
- mass density (298.15 K, x2 = 0.35): 971.69 ± 0.42 kg/m3
- mass density (298.15 K, x2 = 0.4006): 984.44 ± 0.39 kg/m3
- mass density (298.15 K, x2 = 0.4502): 997.77 ± 0.35 kg/m3
- mass density (298.15 K, x2 = 0.5002): 1012.21 ± 0.33 kg/m3
- mass density (298.15 K, x2 = 0.5499): 1027.58 ± 0.32 kg/m3
- mass density (298.15 K, x2 = 0.6): 1044.23 ± 0.31 kg/m3
- mass density (298.15 K, x2 = 0.65): 1062.16 ± 0.31 kg/m3
- mass density (298.15 K, x2 = 0.6999): 1081.63 ± 0.31 kg/m3
- mass density (298.15 K, x2 = 0.7492): 1102.29 ± 0.32 kg/m3
- mass density (298.15 K, x2 = 0.8): 1125.89 ± 0.33 kg/m3
- mass density (298.15 K, x2 = 0.85): 1151.27 ± 0.35 kg/m3
- mass density (298.15 K, x2 = 0.9): 1179.35 ± 0.38 kg/m3
- mass density (298.15 K, x2 = 0.95): 1210.52 ± 0.41 kg/m3
- mass density (298.15 K, x2 = 0.975): 1227.5 ± 0.43 kg/m3
- mass density (303.15 K, x2 = 0.0234): 901.12 ± 0.7 kg/m3
- mass density (303.15 K, x2 = 0.0504): 905.62 ± 0.68 kg/m3
- mass density (303.15 K, x2 = 0.0751): 909.87 ± 0.65 kg/m3
- mass density (303.15 K, x2 = 0.1009): 914.47 ± 0.63 kg/m3
- mass density (303.15 K, x2 = 0.1504): 923.55 ± 0.58 kg/m3
- mass density (303.15 K, x2 = 0.2): 933.31 ± 0.54 kg/m3
- mass density (303.15 K, x2 = 0.2546): 944.67 ± 0.49 kg/m3
- mass density (303.15 K, x2 = 0.2999): 954.59 ± 0.46 kg/m3
- mass density (303.15 K, x2 = 0.35): 966.34 ± 0.42 kg/m3
- mass density (303.15 K, x2 = 0.4006): 978.99 ± 0.38 kg/m3
- mass density (303.15 K, x2 = 0.4502): 992.22 ± 0.35 kg/m3
- mass density (303.15 K, x2 = 0.5002): 1006.55 ± 0.33 kg/m3
- mass density (303.15 K, x2 = 0.5499): 1021.8 ± 0.32 kg/m3
- mass density (303.15 K, x2 = 0.6): 1038.33 ± 0.31 kg/m3
- mass density (303.15 K, x2 = 0.65): 1056.14 ± 0.3 kg/m3
- mass density (303.15 K, x2 = 0.6999): 1075.47 ± 0.3 kg/m3
- mass density (303.15 K, x2 = 0.7492): 1095.99 ± 0.31 kg/m3
- mass density (303.15 K, x2 = 0.8): 1119.42 ± 0.33 kg/m3
- mass density (303.15 K, x2 = 0.85): 1144.62 ± 0.35 kg/m3
- mass density (303.15 K, x2 = 0.9): 1172.51 ± 0.38 kg/m3
- mass density (303.15 K, x2 = 0.95): 1203.45 ± 0.4 kg/m3
- mass density (303.15 K, x2 = 0.975): 1220.32 ± 0.43 kg/m3
- mass density (308.15 K, x2 = 0.0234): 896.25 ± 0.7 kg/m3
- mass density (308.15 K, x2 = 0.0504): 900.73 ± 0.67 kg/m3
- mass density (308.15 K, x2 = 0.0751): 904.95 ± 0.65 kg/m3
- mass density (308.15 K, x2 = 0.1009): 909.51 ± 0.63 kg/m3
- mass density (308.15 K, x2 = 0.1504): 918.52 ± 0.58 kg/m3
- mass density (308.15 K, x2 = 0.2): 928.2 ± 0.54 kg/m3
- mass density (308.15 K, x2 = 0.2546): 939.47 ± 0.49 kg/m3
- mass density (308.15 K, x2 = 0.2999): 949.32 ± 0.46 kg/m3
- mass density (308.15 K, x2 = 0.35): 960.97 ± 0.42 kg/m3
- mass density (308.15 K, x2 = 0.4006): 973.53 ± 0.38 kg/m3
- mass density (308.15 K, x2 = 0.4502): 986.66 ± 0.35 kg/m3
